In US12319703B2, “Macrocyclic fused pyrazoles as Mcl-1 inhibitors” (ASCENTAGE PHARMA (SUZHOU) CO., LTD., priority 2019, dated 2025):
Values after ≈ are worked out from the molar mass of the structure shown.

Legend:
Kinetic solubility assay = format: physicochemical; settings: pH 6.5 PBS buffer, HPLC; for solubility: PBS buffer pH 6.5, aqueous buffer, thermodynamic from solid, read-out: Solubility (pH 6.5, μg/mL)
Experimental: Representative Compounds of the Disclosure were tested in a solubility assay with pH 6.5 PBS buffer. PBS buffer was prepared by dissolving 4.86 g of potassium dihydrogen phosphate and 5.09 g of disodium hydrogen phosphate dodecahydrate in 1 L of ultrapure water to have final pH value of 6.5. In the solubility assay, 0.5 mg of test sample was dissolved in 1 mL of methanol and the stock solution was transferred into 2 mL EP tube, and evaporated at 50° C. for 3 h. To the tube was added 1 mL of PBS buffer and the mixture was stirred and shaken for 1-2 h. The solution was allowed to stand overnight and then filtered before HPLC analysis. Another 1.5 mg of the sample was dissolved in 3 mL of methanol to prepare a calibration curve with a series of concentration range of 5-500 μM. The solubility of each sample was determined by the measured peak area in HPLC.

NCI-H929 cells = assay: Cell viability assay (NCI-H929 cells), CCK-8; format: cell-based; settings: Homo sapiens, NCI-H929, 24 h, WST, 5% FBS
Experimental: Cell Viability Assay (NCI-H929 Cells)
NCI-H929 cells were obtained from American Type Culture Collection (ATCC). Cells were maintained in the recommended culture medium (RPMI 1640) with 10% FBS and 0.05 mM BME at 37° C. and an atmosphere of 5% CO2.
The effect of Compounds on cell viability was determined using Cell Counting Kit-8 (CCK-8) assay according to the manufacturer's instructions. 95 μL of NCI-H929 cell suspension (20000 cells/well) in culture medium were seeded into 96-well plates and cultured 4 hrs. Each tested compound was serially diluted in DMSO, then 5 μL of the compound or DMSO was diluted in 95 μL medium once more. At last, 5 μL of the compound dilution was added to the corresponding well of the cell plate. After the addition of the tested compound, the cells were incubated at 37° C. in an atmosphere of 5% CO2 for 24 hrs. At the end, 10 μL of CCK-8 solution was added to each well of the plate and incubated for 1-4 hours. The plates were read at 450 nm on the microplate reader (BioTek Synergy 1MF). The readings were normalized to the vehicle cells, and the IC50 was calculated by nonlinear regression analysis using GraphPad Prism 6 software.

[1] = target: T1, Mcl-1 protein (residues 171-323) (Homo sapiens, UniProt Q07820); assay: Inhibition of Mcl-1 by fluorescence polarization (FP) competitive binding assay; settings: FAM-Bid tracer 2 nM, Mcl-1 20 nM, 30 min
T1 construct: Tag-free Mcl-1 protein (residues 171-323) was used in the FP assay
T1 sequence (Q07820 171-323): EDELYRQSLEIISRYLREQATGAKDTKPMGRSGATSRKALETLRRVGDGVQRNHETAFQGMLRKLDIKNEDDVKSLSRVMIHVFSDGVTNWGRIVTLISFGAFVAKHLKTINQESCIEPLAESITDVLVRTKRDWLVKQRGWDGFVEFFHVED
Experimental: Inhibition of Mcl-1 by Fluorescence Polarization (FP) Assay.
The method used a fluorescein labelled peptide (FAM-Bid) which binds to the Mcl-1 protein leading to an increased anisotropy measured in milli-polarization (mP) values using a plate reader.
A 10-points serial dilution of each compound was prepared in DMSO and 5 μL solution was transferred into flat bottomed, 96-well back plate (final DMSO concentration 5%). 120 μL of Buffer (PBS, 0.01% BGG (Sigma Cat. #SRE0011), 0.01% Triton X-100), containing the Fluorescein labelled peptide (Final concentration 2 nM) and Mcl-1 protein (final concentration 20 nM) was then added. […] 10-points dose response curves were plotted with GraphPad software using Sigmoidal Dose-Response Model and the IC50 values were determined by nonlinear regression fitting of the competition curves.

OPM-2 cells = assay: Cell viability assay (OPM-2 cells), CCK-8; format: cell-based; settings: Homo sapiens, OPM-2, 24 h, WST, 5% FBS, read-out: OPM2 (WST, 5% FBS)
Experimental: Cell Viability Assay (OPM-2 Cells)
OPM-2 cells were obtained from Deutsche Sammlung von Mikroorganismen und Zellkulturen GmbH (DSMZ). […]
The effect of representative Compounds of the Disclosure on cell viability was determined using Cell Counting Kit-8 (CCK-8) assay (Shanghai Life iLab Bio Technology) according to the manufacturer's instructions. Each tested compound was serially diluted in culture medium, 100 μL of the compound dilution was added into 96-well plates. 100 μL of an OPM-2 cell suspension (20000 cells/well) in culture medium were seeded into the corresponding well of the plate and the cells were incubated at 37° C. in an atmosphere of 5% CO2 for 24 hours. In the next day, 20 μL of CCK-8 solution was added to each well of the plate and incubated for 4 hours.
The plates were read at 450 nm on the microplate spectrophotometer (SpectraMax plus 384, Molecular devices). The readings were normalized to the vehicle cells, and the IC50 was calculated by nonlinear regression analysis using GraphPad Prism 6 software.

SMILES | Solubility (pH 6.5, μg/mL) (Kinetic solubility assay) | IC50 (NCI-H929 cells) | solubility (Kinetic solubility assay) | IC50 [1] | IC50 (OPM-2 cells)
Cn1nc2cc1CSc1cc(c3ccc(F)cc3c1)OCCCc1c(C(=O)O)n(C)c3c(c(Cl)ccc13)-c1c(nn3c1COCC3)CSC2 (atropisomer, axis not shown) [compound 39, (S)-(Z)-1^6-chloro-9^6-fluoro-1^1,6^1-dimethyl-26,27-dihydro-1^1H,2^4H,6^1H-10-oxa-4,8-dithia-2(3,2)-pyrazolo[5,1-c][1,4]oxazina-1(7,3)-indola-6(3,5)-pyrazola-9(3,1)-naphthalenacyclotridecaphane-1^2-carboxylic acid] | <1 μg/mL |  |  |  | 
Cn1nc2cc1CSc1cc(c3ccc(F)cc3c1)OCCCc1c(C(=O)O)n(C)c3c(c(Cl)ccc13)-c1c(nn3c1COCC3)CSC2 (atropisomer, axis not shown) [compound 40, (R)-(Z)-1^6-chloro-9^6-fluoro-1^1,6^1-dimethyl-26,27-dihydro-1^1H,2^4H,6^1H-10-oxa-4,8-dithia-2(3,2)-pyrazolo[5,1-c][1,4]oxazina-1(7,3)-indola-6(3,5)-pyrazola-9(3,1)-naphthalenacyclotridecaphane-1^2-carboxylic acid] | 74 μg/mL |  |  |  | 
Cc1c2c(nn1C)CSCc1cc(n(C)n1)CSc1cc(c3ccccc3c1)OCCCc1c(C(=O)O)n(C)c3c-2c(Cl)ccc13 [AZD5991, (Z)-1^6-chloro-1^1,2^1,2^5,6^1-tetramethyl-1H,2^1H,6^1H-10-oxa-4,8-dithia-1(7,3)-indola-2(4,3),6(3,5)-dipyrazola-9(3,1)-naphthalenacyclotridecaphane-1^2-carboxylic acid, reference compound] |  | 0.047 µM | < 1 µg/mL |  | 
Cc1nc2sc1CSc1cc(c3ccccc3c1)OCCCc1c(C(=O)O)n(C)c3c(c(Cl)ccc13)-c1c(nn3c1CCC3)CSC2 [compound 5, 1^6-chloro-1^1,6^4-dimethyl-2^5,2^6-dihydro-1^1H,2^4H-10-oxa-4,8-dithia-6(2,5)-thiazola-1(7,3)-indola-2(3,2)-pyrrolo[1,2-b]pyrazola-9(3,1)-naphthalenacyclotridecaphane-1^2-carboxylic acid] |  | 0.96 µM | 2 µg/mL (≈ 2.85 µM) | 0.0113 µM | 0.973 µM
Cn1nc2cc1CSCc1nn3c(c1-c1c(Cl)ccc4c(c(C(=O)O)n(C)c14)CCCOc1cc(cc4ccccc14)SC2)CCC3 [compound 7, (Z)-1^6-chloro-1^1,6^1-dimethyl-2^5,2^6-dihydro-1^1H,2^4H,6^1H-10-oxa-4,8-dithia-1(7,3)-indola-2(3,2)-pyrrolo[1,2-b]pyrazola-6(5,3)-pyrazola-9(3,1)-naphthalenacyclotridecaphane-1^2-carboxylic acid] |  | 1.13 µM | 1 µg/mL (≈ 1.46 µM) | 0.15 µM | 0.774 µM
Cc1oc2nc1CSc1cc(c3ccccc3c1)OCCCc1c(C(=O)O)n(C)c3c(c(Cl)ccc13)-c1c(nn3c1CCC3)CSC2 [compound 11, (Z)-1^6-chloro-1^1,6^5-dimethyl-2^5,2^6-dihydro-1^1H,2^4H-10-oxa-4,8-dithia-6(2,4)-oxazola-1(7,3)-indola-2(3,2)-pyrrolo[1,2-b]pyrazola-9(3,1)-naphthalenacyclotridecaphane-1^2-carboxylic acid] |  | 3.54 µM | < 1 µg/mL | 0.0106 µM | > 10 µM
Cn1nc2cc1CSc1cc(c3cc(F)ccc3c1)OCCCc1c(C(=O)O)n(C)c3c(c(Cl)ccc13)-c1c(nn3c1COCC3)CSC2 [compound 16, (Z)-1^6-chloro-9^7-fluoro-1^1,6^1-dimethyl-2^6,2^7-dihydro-1^1H,2^4H,6^1H-10-oxa-4,8-dithia-2(3,2)-pyrazolo[5,1-c][1,4]oxazina-1(7,3)-indola-6(3,5)-pyrazola-9(3,1)-naphthalenacyclotridecaphane-1^2-carboxylic acid] |  | 0.36 µM | < 1 µg/mL | 0.0207 µM | 2.4 µM
Cn1nc2cc1CSc1cc(c3cc(Cl)ccc3c1)OCCCc1c(C(=O)O)n(C)c3c(c(Cl)ccc13)-c1c(nn3c1COCC3)CSC2 [compound 18, (Z)-1^6,9^7-dichloro-1^1,6^1-dimethyl-2^6,2^7-dihydro-1^1H,2^4H,6^1H-10-oxa-4,8-dithia-2(3,2)-pyrazolo[5,1-c][1,4]oxazina-1(7,3)-indola-6(3,5)-pyrazola-9(3,1)-naphthalenacyclotridecaphane-1^2-carboxylic acid] |  | 1.62 µM | < 1 µg/mL | 0.019 µM | 3.49 µM
Cn1nc2cc1CSc1cc(c3ccccc3c1)OCCCc1c(C(=O)O)n(C)c3c(c(Cl)ccc13)-c1c(nn3c1CSCC3)CSC2 [compound 21, (Z)-1^6-chloro-1^1,6^1-dimethyl-2^6,2^7-dihydro-1^1H,2^4H,6^1H-10-oxa-4,8-dithia-2(3,2)-pyrazolo[5,1-c][1,4]thiazina-1(7,3)-indola-6(3,5)-pyrazola-9(3,1)-naphthalenacyclotridecaphane-1^2-carboxylic acid] |  | 0.116 µM | 3 µg/mL (≈ 4.19 µM) | 0.0158 µM | 0.291 µM
Cn1nc2cc1CSc1cc(c3ccccc3c1)OCCCc1c(C(=O)O)n(C)c3c(c(Cl)ccc13)-c1c(nn3c1CCCCC3)CSC2 [compound 23, (Z)-1^6-chloro-1^1,6^1-dimethyl-2^5,2^6,2^7,2^8-tetrahydro-1^1H,2^4H,6^1H-10-oxa-4,8-dithia-2(3,2)-pyrazolo[1,5-a]azepina-1(7,3)-indola-6(3,5)-pyrazola-9(3,1)-naphthalenacyclotridecaphane-1^2-carboxylic acid] |  | 0.1 µM | < 1 µg/mL | 0.01 µM | 0.195 µM
Cc1c2c(nn1C)CN(S(C)(=O)=O)Cc1cc(n(C)n1)CSc1cc(c3ccc(F)cc3c1)OCCCc1c(C(=O)O)n(C)c3c-2c(Cl)ccc13 [compound 45, (Z)-1^6-chloro-9^6-fluoro-1^1,2^1,2^5,6^1-tetramethyl-4-(methylsulfonyl)-1^1H,2^1H,6^1H-10-oxa-8-thia-4-aza-1(7,3)-indola-2(4,3),6(3,5)-dipyrazola-9(3,1)-naphthalenacyclotridecaphane-1^2-carboxylic acid] | >400 μg/mL |  |  |  | 
Cc1c2c(nn1C)CN(S(C)(=O)=O)Cc1cc(n(C)n1)CSc1cc(c3ccc(F)cc3c1)OCCCc1c(C(=O)O)n(C)c3c-2c(Cl)ccc13 [compound 47, (S)-(Z)-1^6-chloro-9^6-fluoro-1^1,2^1,2^5,6^1-tetramethyl-4-(methylsulfonyl)-1^1H,2^1H,6^1H-10-oxa-8-thia-4-aza-1(7,3)-indola-2(4,3),6(3,5)-dipyrazola-9(3,1)-naphthalenacyclotridecaphane-1^2-carboxylic acid] | <1 μg/mL |  |  |  | 
Cc1c2c(nn1C)CN(S(C)(=O)=O)Cc1cc(n(C)n1)CSc1cc(c3ccc(F)cc3c1)OCCCc1c(C(=O)O)n(C)c3c-2c(Cl)ccc13 [compound 48, (R)-(Z)-1^6-chloro-9^6-fluoro-1^1,2^1,2^5,6^1-tetramethyl-4-(methylsulfonyl)-1^1H,2^1H,6^1H-10-oxa-8-thia-4-aza-1(7,3)-indola-2(4,3),6(3,5)-dipyrazola-9(3,1)-naphthalenacyclotridecaphane-1^2-carboxylic acid] | 3 μg/mL |  |  |  | 
